Like-named read-outs stand apart in the source and are kept apart here.
How the values were obtained:
sensitive AML cell lines = assay: Viacount viability assay by flow cytometry; format: cell-based; conditions: Homo sapiens, 6 h pulse, assessed at 48 h, read-out: non-viable cells
Procedure: AML cells were seeded at 5 x 10^5 cells/ml in a 6-well plate and incubated with the test compound or vehicle control (DMSO) for 6, 8 or 10 h. At the end of the incubation period, cells were collected into Falcon tubes, pelleted via centrifugation (5 min at 478 x g), and medium containing compound was aspirated. The cells were resuspended in 4 ml of fresh compound-free medium and returned to the 6-well plates for further incubation. Following compound addition, 100 μl (at 24 h), 75 μl (at 48 h), 50 μl (at 72 h) or 30 μl (at 96 h) of a homogeneous suspension of cells were removed from the culture, made up to 100 μl with medium and mixed with 100 μl Guava Viacount reagent (Millipore, Nottingham, UK) in a 96-well plate. Samples were incubated for 20 min in the dark, mixed and then analyzed by GuavaSoft 2.6 software on the Guava Easycyte 8HT (Millipore). Guava Viacount software was used to gate and calculate the proportion of viable and dead cells in the population.

[1] = system: all five cell lines (Cal51, MDA-MB-468, HCC1954, MCF10A, 184A1); assay: Standard 72 h viability assay, breast panel; format: cell-based; conditions: Homo sapiens
Procedure: (§1) Solid tumor cell lines were seeded in 100 μl medium into 96-well plates at an appropriate cell number determined by a cell dilution assay (Cal51–2000 cells/well; Colo205, MCF10A and 184A1–3000 cells/well and MDA-MB-468, HCC1954–4000 cells/well). AML suspension cells were seeded in 96-well plates at approximately 3000 cells per well. Cells were incubated overnight at 37°C, 5% CO2. The following day, 100 μl fresh medium containing increasing concentrations of appropriate compound was added and the cells were incubated for up to 72 h at 37°C, 5% CO2. For pulse treatment of solid (adherent) tumor cell lines, medium was aspirated and replaced with fresh drug-free medium. For pulse treatment of suspension lines, plates were centrifuged at 478 xg for 5 min at the end of the incubation period with compound, medium containing compound was carefully aspirated and replaced with fresh compound-free medium. A total of 72 h after the start of treatment, 20 μl of a 10X stock of resazurin sodium salt (Sigma-Aldrich, Dorset, UK) prepared in medium was added to the cells and incubated for up to 3 h. […] was measured on the Wallac Victor plate reader (Cambridge, UK) at 544–595 nm. IC50/70/90 calculations were determined in XLFit.

H23 = assay: Resazurin reduction cell viability assay; format: cell-based, human; conditions: 6 h pulse
[2] = system: subcutaneous EOL-1 tumors; assay: EOL-1 human eosinophilic leukemia xenograft model; format: in vivo, SCID mice; conditions: for tumor growth inhibition (TGI): Day 19; for median TGI: day 9
Procedure: Female athymic CB-17 SCID (Harlan Sprague-Dawley) mice between 6–7 weeks of age weighing approximately 22 grams were housed in a 12-h light-dark cycle at 70–74°F (21–23°C) and 40–60% humidity. Animals were fed water ad libitum (reverse osmosis, 2 ppm Cl2) and an irradiated standard rodent diet (Teklad 2919) consisting of 19% protein, 9% fat, and 4% fiber. Mice were injected subcutaneously into the right flank with 1x10^7 EOL-1 cells in 100 μl of a 1:1 HBSS:Matrigel solution. When tumors reached approximately 125–250 mm^3, animals were matched by tumor volume and then randomized into treatment and control groups before dosing was initiated. […] Cytarabine, also known as cytosine arabinoside (AraC), was administered by daily ip injection for 5 days only. Agent toxicity was assessed by effects on body weight and clinical signs. Animals were weighed twice weekly using a digital scale (Ohaus SP601). Beginning on Day 0, tumor dimensions were measured twice weekly by digital caliper (Fowler Ultra-Cal IV); tumor volume was calculated using the formula TV = width^2 x length x 0.52. […] Statistical differences in tumor volume were determined using a two-tailed One-Way Analysis of Variance (ANOVA) followed by the Dunnett’s multiple comparisons test comparing treated groups with control. For animal welfare the following methods were used: (a) methods of sacrifice: isoflurane anesthesia followed by cervical dislocation; (b) methods of anesthesia and/or analgesia: isoflurane anesthesia and (c) efforts to alleviate suffering: carprofen if animal veterinarian decides necessary or euthanasia.

MCL1 = system: MCL1; set-up: method as in earlier work; conditions: patient PBMCs; recommended phase 2 dose; cited from earlier work
HCC1954 = assay: Resazurin reduction cell viability assay; format: cell-based; conditions: Homo sapiens
Procedure: as §1

Nomo-1 = assay: Resazurin reduction cell viability assay; format: cell-based; conditions: Homo sapiens
Procedure: as §1

Cal51 = assay: Resazurin reduction cell viability assay; format: cell-based; conditions: Homo sapiens
Procedure: as §1

MDA-MB-468 = assay: Resazurin reduction cell viability assay; format: cell-based; conditions: Homo sapiens
Procedure: as §1

ML-2 = assay: Resazurin reduction cell viability assay; format: cell-based; conditions: Homo sapiens
Procedure: as §1

HL60 = assay: Resazurin reduction cell viability assay; format: cell-based; conditions: Homo sapiens
Procedure: as §1

MINK = target: T1, MINK (Homo sapiens, UniProt Q8N4C8); assay: Carna kinase panel screen; format: biochemical; conditions: read-out: % Inhibition ± SD
T1 construct: purchased Carna Biosciences
Procedure: (§2) IC50 values were determined from a 10-point concentration curve using ATP concentrations approximating Km values. […] The percentage inhibition of each test solution was calculated, which allowed the IC50 value to be determined from concentration versus percentage inhibition curves by fitting to a four parameter logistic curve.

CaMK1a = target: T2, CaMK1a (Homo sapiens, UniProt Q14012); assay: Carna kinase panel screen; format: biochemical; conditions: read-out: % Inhibition ± SD
T2 construct: purchased Carna Biosciences
Procedure: as §2

EphB4 = target: T3, EphB4 (Homo sapiens, UniProt P54760); assay: Carna kinase panel screen; format: biochemical; conditions: read-out: % Inhibition ± SD
T3 construct: purchased Carna Biosciences
Procedure: as §2

panel of 256 kinases = assay: Carna 256-kinase selectivity panel, overall; format: biochemical; conditions: 1 μM
Procedure: as §2

[3] = 40 mg/kg oral qd x 5 for 2 weeks
[4] = 55 mg/kg oral qd x 5 for 2 weeks
[5] = 72 h continuous, read-out: 72 h continuous IC50 ± SD
[6] = read-out: 6 h pulse IC50 ± SD, 6 h pulse then 66 h release

T1 sequence (Q8N4C8 whole entry): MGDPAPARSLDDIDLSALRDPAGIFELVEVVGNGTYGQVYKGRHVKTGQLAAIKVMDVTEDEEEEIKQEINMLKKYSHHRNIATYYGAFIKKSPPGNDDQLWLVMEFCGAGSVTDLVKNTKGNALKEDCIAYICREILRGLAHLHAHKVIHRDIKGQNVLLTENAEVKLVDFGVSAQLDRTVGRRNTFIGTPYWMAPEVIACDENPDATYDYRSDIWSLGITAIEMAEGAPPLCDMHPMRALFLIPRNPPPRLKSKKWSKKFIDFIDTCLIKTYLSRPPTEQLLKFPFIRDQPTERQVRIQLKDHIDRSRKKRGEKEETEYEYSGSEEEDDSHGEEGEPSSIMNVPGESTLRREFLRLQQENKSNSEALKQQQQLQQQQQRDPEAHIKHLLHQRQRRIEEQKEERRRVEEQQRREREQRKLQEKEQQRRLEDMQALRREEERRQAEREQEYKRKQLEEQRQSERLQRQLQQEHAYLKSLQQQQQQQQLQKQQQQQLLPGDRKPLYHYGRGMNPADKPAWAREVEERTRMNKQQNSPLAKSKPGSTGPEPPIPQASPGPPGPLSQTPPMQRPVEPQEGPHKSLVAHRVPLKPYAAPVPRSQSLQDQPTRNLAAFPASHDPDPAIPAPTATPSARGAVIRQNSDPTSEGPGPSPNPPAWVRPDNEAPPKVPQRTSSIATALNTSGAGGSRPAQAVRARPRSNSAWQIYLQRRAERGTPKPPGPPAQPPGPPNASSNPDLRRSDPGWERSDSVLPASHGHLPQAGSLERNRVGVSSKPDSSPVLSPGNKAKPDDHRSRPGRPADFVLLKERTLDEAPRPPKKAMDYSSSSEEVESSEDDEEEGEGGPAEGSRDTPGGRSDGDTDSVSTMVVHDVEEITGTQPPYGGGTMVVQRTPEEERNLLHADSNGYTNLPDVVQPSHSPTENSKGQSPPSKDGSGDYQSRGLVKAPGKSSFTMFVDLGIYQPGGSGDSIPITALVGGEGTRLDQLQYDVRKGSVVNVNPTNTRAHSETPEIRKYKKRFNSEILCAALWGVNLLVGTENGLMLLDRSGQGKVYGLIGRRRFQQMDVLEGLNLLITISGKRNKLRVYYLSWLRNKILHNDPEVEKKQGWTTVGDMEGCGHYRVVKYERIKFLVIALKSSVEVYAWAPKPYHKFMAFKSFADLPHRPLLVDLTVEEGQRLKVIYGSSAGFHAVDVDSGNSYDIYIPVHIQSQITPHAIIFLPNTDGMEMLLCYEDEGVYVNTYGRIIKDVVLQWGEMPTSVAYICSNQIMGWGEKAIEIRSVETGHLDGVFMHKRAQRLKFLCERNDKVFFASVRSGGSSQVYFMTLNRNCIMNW
T2 sequence (Q14012 whole entry): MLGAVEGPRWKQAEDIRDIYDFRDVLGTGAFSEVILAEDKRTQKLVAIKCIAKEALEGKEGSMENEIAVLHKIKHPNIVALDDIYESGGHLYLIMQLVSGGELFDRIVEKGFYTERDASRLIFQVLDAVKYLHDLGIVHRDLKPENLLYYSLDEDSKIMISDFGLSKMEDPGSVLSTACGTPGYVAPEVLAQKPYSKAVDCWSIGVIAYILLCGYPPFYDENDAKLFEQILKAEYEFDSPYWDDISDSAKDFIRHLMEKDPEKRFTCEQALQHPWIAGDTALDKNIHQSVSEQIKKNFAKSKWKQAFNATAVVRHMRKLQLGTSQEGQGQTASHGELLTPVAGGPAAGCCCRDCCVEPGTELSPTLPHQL
T3 sequence (P54760 16-987): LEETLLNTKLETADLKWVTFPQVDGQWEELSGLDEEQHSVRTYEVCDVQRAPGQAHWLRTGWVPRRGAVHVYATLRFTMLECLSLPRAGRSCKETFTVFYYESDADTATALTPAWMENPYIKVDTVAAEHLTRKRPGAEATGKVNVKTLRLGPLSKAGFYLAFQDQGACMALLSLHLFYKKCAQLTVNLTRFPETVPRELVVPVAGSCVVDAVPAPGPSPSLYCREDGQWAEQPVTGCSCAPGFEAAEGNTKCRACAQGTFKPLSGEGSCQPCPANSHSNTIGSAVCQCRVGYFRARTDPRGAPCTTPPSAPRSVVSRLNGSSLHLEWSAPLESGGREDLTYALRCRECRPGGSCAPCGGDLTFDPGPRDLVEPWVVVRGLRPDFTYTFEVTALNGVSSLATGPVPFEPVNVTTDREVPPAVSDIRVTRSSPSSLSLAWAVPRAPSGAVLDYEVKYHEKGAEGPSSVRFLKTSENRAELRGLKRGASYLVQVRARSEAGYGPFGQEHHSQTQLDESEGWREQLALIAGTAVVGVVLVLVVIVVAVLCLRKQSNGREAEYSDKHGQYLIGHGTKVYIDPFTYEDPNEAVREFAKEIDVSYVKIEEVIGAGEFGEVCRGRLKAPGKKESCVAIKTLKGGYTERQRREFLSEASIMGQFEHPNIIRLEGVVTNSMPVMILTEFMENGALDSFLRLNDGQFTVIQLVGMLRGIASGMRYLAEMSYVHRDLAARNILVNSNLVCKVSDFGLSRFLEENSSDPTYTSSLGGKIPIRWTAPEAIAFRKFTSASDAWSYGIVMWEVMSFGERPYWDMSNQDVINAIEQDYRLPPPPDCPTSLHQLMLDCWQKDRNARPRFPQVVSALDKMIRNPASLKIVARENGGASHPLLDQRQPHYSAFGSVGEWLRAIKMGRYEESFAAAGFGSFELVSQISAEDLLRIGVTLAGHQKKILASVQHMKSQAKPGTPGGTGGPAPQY

CC[C@H](Nc1nc(NCc2cnc(C)cc2C)c2ncn(C(C)C)c2n1)[C@@H](C)O [Fadraciclib, 2-pentanol, 3-[[6-[[(4,6-dimethyl-3-pyridinyl)methyl]amino]-9-(1-methylethyl)-9Hpurin-2-yl]amino]-, (2R,3S)]
cytotoxicity at 1 µM (sensitive AML cell lines): ~100% | IC50 [1]: ≤ 400 nM | IC50, short pulse (H23): submicromolar | tumor growth inhibition (TGI) [2, 3]: 97% | median TGI [2, 3]: 95% | transient body weight loss ([2]; 55 mg/kg oral): 2% | tumor growth inhibition (TGI) [2, 4]: 100% | median TGI [2, 4]: 97% | duration of MCL1 suppression (MCL1): > 24 h | IC50 (HCC1954; read-out: 8 h pulse IC50 ± SD, HCC1954 (HER2 amplified), 8 h pulse, read at 72 h): 480 ± 50 nM | IC50 (HCC1954; HCC1954, continuous 72 h, read-out: continuous IC50 ± SD): 400 ± 30 nM | IC90 (Nomo-1; 6 h pulse then 66 h release): 1800 nM | IC50 (Nomo-1; [5]): 290 ± 50 nM | IC50 (Nomo-1; [6]): 660 ± 110 nM | IC50 (Cal51; CAL-51, read-out: 8 h pulse IC50 ± SD, Cal51 (TNBC), 8 h pulse, read at 72 h): 680 ± 200 nM | IC50 (Cal51; CAL-51, Cal51, continuous 72 h, read-out: continuous IC50 ± SD): 230 ± 40 nM | IC50 (MDA-MB-468; read-out: 8 h pulse IC50 ± SD, MDA-MB-468 (TNBC), 8 h pulse, read at 72 h): 990 ± 340 nM | IC50 (MDA-MB-468; MDA-MB-468, continuous 72 h, read-out: continuous IC50 ± SD): 380 ± 170 nM | IC90 (ML-2; 6 h pulse then 66 h release): 590 nM | IC50 (ML-2; [5]): 190 ± 50 nM | IC50 (ML-2; [6]): 330 ± 120 nM | IC90 (HL60; HL-60, 6 h pulse then 66 h release): 1600 nM | IC50 (HL60; HL-60, 72 h continuous, read-out: 72 h continuous IC50 ± SD): 440 ± 70 nM | IC50 (HL60; HL-60, read-out: 6 h pulse IC50 ± SD, 6 h pulse then 66 h release): 790 ± 140 nM | inhibition at 1 µM (MINK): -15.8 ± 0.3% | inhibition at 1 µM (CaMK1a): -14.8 ± 0.2% | inhibition at 1 µM (EphB4): 3.6 ± 0.1% | number of kinases inhibited >50% (panel of 256 kinases): 9
